For test [1], the target named is T1, Stearoyl-CoA Desaturase (SCD) (Mus musculus, UniProt P13516).
T1 construct: from tissue; host or cells: liver microsomes of male ICR mice on a high-carbohydrate, low fat diet
T1 sequence (P13516 1-355): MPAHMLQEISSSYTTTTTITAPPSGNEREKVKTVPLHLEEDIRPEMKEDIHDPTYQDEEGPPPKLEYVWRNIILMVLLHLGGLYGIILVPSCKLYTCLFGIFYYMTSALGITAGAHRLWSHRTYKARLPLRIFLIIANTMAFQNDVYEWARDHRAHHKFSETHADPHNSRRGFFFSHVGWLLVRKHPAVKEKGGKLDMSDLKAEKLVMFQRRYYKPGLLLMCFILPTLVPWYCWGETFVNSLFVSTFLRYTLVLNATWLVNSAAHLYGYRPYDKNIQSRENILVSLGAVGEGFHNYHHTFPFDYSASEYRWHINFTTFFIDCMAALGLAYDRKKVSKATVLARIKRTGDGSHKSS
Kind of test: Stearoyl-CoA desaturase inhibition using mouse liver microsomes. The class given is biochemical. The following applies: for Residual Activity (% remaining, 1 μM): % SCD enzyme activity remaining at 1 μM test compound; for Residual Activity (% remaining, 10 μM): % SCD enzyme activity remaining at 10 μM test compound. The procedure:
Preparation of Mouse Liver Microsomes:
The absence of mitochondrial contamination is enzymatically assessed.
Incubation of Mouse Liver Microsomes with Test Compounds: […]
(In general: Liver microsomes are vesicles of endoplasmic reticulum, rich in cytochrome P450 enzymes.)

In test [2] the target is T2, SCD (Homo sapiens, UniProt O00767).
T2 sequence (O00767 1-359): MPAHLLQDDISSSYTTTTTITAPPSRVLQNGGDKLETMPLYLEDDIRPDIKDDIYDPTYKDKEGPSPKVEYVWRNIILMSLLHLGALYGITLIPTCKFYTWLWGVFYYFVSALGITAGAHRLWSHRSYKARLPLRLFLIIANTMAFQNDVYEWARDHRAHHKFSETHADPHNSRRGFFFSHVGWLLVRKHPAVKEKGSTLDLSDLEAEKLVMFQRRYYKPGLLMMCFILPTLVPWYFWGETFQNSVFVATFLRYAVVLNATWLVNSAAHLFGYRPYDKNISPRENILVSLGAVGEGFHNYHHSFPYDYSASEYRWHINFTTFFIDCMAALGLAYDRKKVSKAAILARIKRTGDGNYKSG
In words: Cell IC50 of SCD inhibitors (Table 1, no method given). Format: cell-based. As to conditions: cell assay, cell type not stated.

Where [3] appears, read: projected from residual activity at 1 and 10 μM, read-out: Projected IC50.
Setting [4] is: microsomal assay, read-out: Microsome IC50.

Data on nine compounds can be found in US8148378B2, “Pyridazine derivatives and their use as inhibitors of stearoyl-CoA desaturase-1 activity in a mammal” (Xenon Pharmaceuticals Inc., priority 2003, dated 2012).

Read-outs that look alike come from different tables or passages of the source.

As a reminder, the IC50 is the concentration that inhibits the measured activity by half. Consider `O=C(c1ccccc1C(F)(F)F)N1CCN(c2ccc(OCCC3CC3)nn2)CC1` [Example 5.1, {4-[6-(2-CYCLOPROPYLETHOXY)PYRIDAZIN-3-YL]PIPERAZIN-1-YL}-(2-TRIFLUOROMETHYLPHENYL)METHANONE], for which, in test [1], the “Residual Activity (% remaining, 1 μM)” value stood at 53.875 % remaining and the “Residual Activity (% remaining, 10 μM)” value was found to be 29.330 % remaining. Moreover, the 50% inhibitory concentration (IC50) in test [1] (setting [3]) was 1 to 10 µM.

Consider `CN(CCc1ccccc1)c1ccc(N2CCN(C(=O)c3ccccc3C(F)(F)F)CC2)nn1` [Example 1, {4-[6-(METHYLPHENETHYLAMINO)PYRIDAZIN-3-YL]PIPERAZIN-1-YL}-(2-TRIFLUOROMETHYLPHENYL)METHANONE], for which, in test [1], the “Residual Activity (% remaining, 1 μM)” value came out at 86.210 % remaining and the “Residual Activity (% remaining, 10 μM)” value is recorded as 57.955 % remaining. Also, the concentration for half-maximal inhibition (IC50) in test [1] (setting [3]) was 10 to 50 µM.

For `O=C(c1ccccc1C(F)(F)F)N1CCN(c2ccc(NCCc3ccccc3)nn2)CC1` [Example 1.1, [4-(6-PHENETHYLAMINOPYRIDAZIN-3-YL)PIPERAZIN-1-YL]-(2-TRIFLUOROMETHYLPHENYL)METHANONE], in test [1], the “Residual Activity (% remaining, 1 μM)” value is 91.144 % remaining and the “Residual Activity (% remaining, 10 μM)” value came to 55.946 % remaining. Further, the IC50 in test [1] (setting [3]) fell in the range of 10 to 50 µM.

In the case of `O=C(c1ccccc1C(F)(F)F)N1CCN(c2ccc(S(=O)(=O)CCc3ccccc3)nn2)CC1` [Example 3, {4-[6-(2-PHENYLETHANESULFONYL)PYRIDAZIN-3-YL]PIPERAZIN-1-YL}-(2-TRIFLUOROMETHYL-PHENYL)METHANONE], the values for the 50% inhibitory concentration (IC50) in test [1] (setting [4]) and in test [2] were 0.067 µM and 0.111 µM, respectively.

Regarding `CCCS(=O)(=O)Nc1ccc(N2CCN(C(=O)c3ccccc3C(F)(F)F)CC2)nn1` [Example 2, PROPANE-1-SULFONIC ACID {6-[4-(2-TRIFLUOROMETHYLBENZOYL)PIPERAZIN-1-YL]PYRIDAZIN-3-YL}AMIDE], the IC50 in test [1] (setting [4]) was determined as 6.25 µM; in test [2], 10.5 µM.

Consider `O=C(c1ccccc1C(F)(F)F)N1CCN(c2ccc(OCCc3ccccc3)nn2)CC1` [Example 5, [4-(6-PHENETHYLOXYPYRIDAZIN-3-YL)PIPERAZIN-1-YL]-(2-TRIFLUOROMETHYL-PHENYL)METHANONE], for which the IC50 came out at 4.55 µM in test [1] (setting [4]) and 4.3 µM in test [2].

On to `CC(C)CCSc1ccc(N2CCN(C(=O)c3ccccc3C(F)(F)F)CC2)nn1` [Example 6.1, {4-[6-(3-METHYLBUTYLSULFANYL)PYRIDAZIN-3-YL]PIPERAZIN-1-YL}-(2-TRIFLUOROMETHYL-PHENYL)METHANONE], for which the values for the half-inhibitory concentration (IC50) in test [1] (setting [4]) and in test [2] were 0.447 µM and 0.849 µM, respectively.

Turning to `O=C(c1ccccc1C(F)(F)F)N1CCN(c2ccc(SCCc3ccccc3)nn2)CC1` [Example 6, [4-(6-PHENETHYLSULFANYLPYRIDAZIN-3-YL)PIPERAZIN-1-YL](2-TRIFLUOROMETHYLPHENYL)METHANONE], the IC50 in test [1] (setting [4]) was found to be 0.06 µM; in test [2], 0.033 µM.

For `O=C(c1ccccc1C(F)(F)F)N1CCN(c2ccc([S+]([O-])CCc3ccccc3)nn2)CC1` (stereo not drawn) [Example 4], the IC50 in test [1] (setting [4]) stood at 0.067 µM; in test [2], 0.175 µM.
